Results published in patent US9579376B2 (priority 2009, dated 2017).

Assays:
CD8+ T cells = test: IFN-γ ELISpot deconvolution and follow-up ICS to identify single peptide epitopes; assay type: cell-based, human; details: for antigenicity for persons with HLA A*0201, A*0202 or other HLA-A2 subtypes: Example 1, T-cells from infected patients; for # SUBJECTS: number of HSV-2 seropositive subjects (55 sampled) with CD8+ T cell response to the peptide, ELISpot and follow-up ICS
Description: ELISPOT technology was used to further identify individual peptides.
High throughput intracellular cytokine staining-flow cytometry (ICS) was used to detect IFN-γ, IL-2, TNF-α expression in CD8+ T cells following 6 h exposure of PBMC with HSV-2 peptides (or control antigen) in the presence of co-stimulatory antibodies (α-CD28/α-CD49d) and Brefeldin A. Cytokine responses to peptide antigen were scored positive if they differed from the negative control (p<0.02; Fisher's one-sided test); this cutoff was defined during trial and error validation studies with HSV-2 seronegative subjects and allows for a 5% false positive error rate. Peptide pools giving positive responses by ICS in HSV-2 seropositive subjects were deconvoluted using IFN-γ ELISpot to identify the causative peptide. Deconvolution cutoff was determined as at least 11 spots per well and 3-fold higher spots than DMSO (negative) control.

[1] = system: HSV-2 specific CD8+ T cells; test: CFSE proliferation of peptide exposed PBMC (cell division index); assay type: cell-based, human; details: CFSE stained PBMC; CDI>2 cut-off for proliferation positivity
From the text: To evaluate the proliferative capacity of HSV-2 specific CD8+ T cells, we utilized CFSE to stain PBMC prior to epitope specific stimulation. […] CD8+ T cells that recognized UL4945-49 did proliferate (CDI=8.7), but CDI values were below threshold for peptides UL4981-96, UL4993-108 and UL49129-143 (respective CDI=1.8, 1.4 and 1.6). Since T cells specific for UL4945-49 are more abundant that those specific for the other epitopes, the ability of these cells to proliferate likely reflects the epitope dominance observed within UL49.

[2] = system: HSV-2 specific CD8+ T cells; details: one individual with four HLA-B07 restricted UL49 epitopes; versus other tested epitopes
Description: Identified single peptides were used to individually stimulate CD8+ T cells in subjects with multiple epitopes. These responses were analyzed by ICS to determine the polyfunctional profiles of HSV-2 specific T cells. Single peptides were also used to assess degranulation; the presence of lytic proteins granzyme B and perforin, in HSV-2 specific CD8+ T cells, was determined by flow cytometry. The proliferative capacities of HSV-2 specific T cells were determined by pre-staining peptide exposed PBMC with CFSE. A cell division index (CDI)>2 was used as a cut-off for proliferation positivity.
Single peptides identified during this study were used to activate epitope specific CD8+ T cells. Antigen specific CD8+ T cells were identified using a gating strategy. […] The polyfunctional profiles of responding cells, with reference to the expression of IFN-γ, IL2, and TNF-α, and the mobilization of CD107a were determined.

Row | Substance | # SUBJECTS (CD8+ T cells) | other results
1 | 9 mer: 9 amino acid minimal epitope at amino acids 372-380 of HSV-2 UL25 (FLWEDQTLL; herpes simplex virus 2) | – | antigenicity for persons with HLA A*0201, A*0202 or other HLA-A2 subtypes (CD8+ T cells): repeatedly and strongly positive
2 | AFEDRSYPAVFYLLQ (herpes simplex virus 2) | 1 | –
3 | AQREAAGVYDAVRTW (herpes simplex virus 2) | 2 | –
4 | ARPRRSASVAGSHGPG (herpes simplex virus 2) | 2 | CDI (cell division index) [1]: 1.8
5 | CPLLIFDRTRKFVLA | 1 | –
6 | DFIWTGNPRTAPRSL | 2 | –
7 | DMETGHIGAYVVLVD | 1 | –
8 | DRLDNRLQLGMLIPG (herpes simplex virus 2) | 1 | –
9 | EAGLMDAATPPARPPA | 1 | –
10 | FGGHYMESVFQMYTR (herpes simplex virus 2) | 1 | –
11 | GHIGAYVVLVDQTGN | 1 | –
12 | GVLVHLRIRTREASF (herpes simplex virus 2) | 1 | –
13 | HGPGPARAPPPPGGPV (herpes simplex virus 2) | 1 | CDI (cell division index) [1]: 1.4
14 | HNLFLWEDQTLLRAT | 5 | antigenicity for persons with HLA A*0201, A*0202 or other HLA-A2 subtypes (CD8+ T cells): repeatedly and strongly positive
15 | KNLLORANELVNPDA: 15-mer epitope, amino acids 249-263 of HSV-2 UL49 | 1 | –
16 | KTSNALCVRGARPFS (herpes simplex virus 2) | 1 | –
17 | LHPFCIPCMKTWIPL | 1 | –
18 | LMLEYFCRCAREESK (herpes simplex virus 2) | 1 | –
19 | LPIAGVSSVVALAPY | 1 | –
20 | PKASATPATDPARGR (herpes simplex virus 2) | 1 | CDI (cell division index) [1]: 1.6
21 | PMRARPRGEVRFLHY | 6 | CDI (cell division index) [1]: 8.7; CD107a positive cells among responding cells [2]: less CD107a positive cells relative to IFN-γ+ cells; cytokine levels in responding cells [2]: higher levels of IFN-γ; monofunctional cells among responding cells [2]: less monofunctional cells; response in Elispot and ICS assays (CD8+ T cells; one individual with four HLA-B07 restricted epitopes within UL49, versus other UL49 epitopes): largest detectable response
22 | PVGNMLFDQGTLVGA | 1 | –
23 | RAAAPAWSRRTLLPE | 3 | –
24 | RLGPADRRFVALSGS (herpes simplex virus 2) | 3 | –
25 | SMSLADFHGEEFEKL (herpes simplex virus 2) | 1 | –
